Source: PMC11354204, “Lactylation stabilizes TFEB to elevate autophagy and lysosomal activity” (The Journal of Cell Biology, 2024)

Columns and labels:
[1] = target: T1, p300; p300-HA (Homo sapiens, UniProt Q09472); test: in vitro lactylation of recombinant human TFEB, anti-Kla western blot; type: biochemical; settings: acyl donor; acceptor protein TFEB (10 μg); immunoprecipitated p300-HA; 50 mM Tris-HCl pH 8.0, 30 °C, 1 h
T1 construct: gene EP300; HA-tagged p300 immunoprecipitated from transfected HEK293T cells

[2] = target: T2, NDRG3 (Homo sapiens, UniProt Q9UGV2); test: isothermal titration calorimetry; intrinsic tryptophan fluorescence quenching; type: binding; settings: ITC 25 °C, 10 mM lactate into 0.5 mM NDRG3; Trp quenching with sodium lactate, 100 μM protein, 10 mM NaH2PO4 pH 7.5; non-covalent; used as positive control for TFEB
T2 construct: human NDRG3 in pGEX-5X-1, GST-tagged, expressed in E. coli BL21, glutathione-Sepharose
T2 sequence (Q9UGV2 whole entry): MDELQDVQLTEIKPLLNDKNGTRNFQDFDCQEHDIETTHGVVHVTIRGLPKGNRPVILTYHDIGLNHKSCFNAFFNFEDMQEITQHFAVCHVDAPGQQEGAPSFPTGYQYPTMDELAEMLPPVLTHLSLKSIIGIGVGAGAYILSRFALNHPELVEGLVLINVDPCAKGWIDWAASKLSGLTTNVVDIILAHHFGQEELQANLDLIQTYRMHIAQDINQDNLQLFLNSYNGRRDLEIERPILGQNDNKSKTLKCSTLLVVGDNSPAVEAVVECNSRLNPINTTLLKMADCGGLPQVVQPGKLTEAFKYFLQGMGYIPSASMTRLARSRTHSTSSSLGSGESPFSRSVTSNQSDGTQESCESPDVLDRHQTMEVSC

T1 sequence (Q09472 2-2414): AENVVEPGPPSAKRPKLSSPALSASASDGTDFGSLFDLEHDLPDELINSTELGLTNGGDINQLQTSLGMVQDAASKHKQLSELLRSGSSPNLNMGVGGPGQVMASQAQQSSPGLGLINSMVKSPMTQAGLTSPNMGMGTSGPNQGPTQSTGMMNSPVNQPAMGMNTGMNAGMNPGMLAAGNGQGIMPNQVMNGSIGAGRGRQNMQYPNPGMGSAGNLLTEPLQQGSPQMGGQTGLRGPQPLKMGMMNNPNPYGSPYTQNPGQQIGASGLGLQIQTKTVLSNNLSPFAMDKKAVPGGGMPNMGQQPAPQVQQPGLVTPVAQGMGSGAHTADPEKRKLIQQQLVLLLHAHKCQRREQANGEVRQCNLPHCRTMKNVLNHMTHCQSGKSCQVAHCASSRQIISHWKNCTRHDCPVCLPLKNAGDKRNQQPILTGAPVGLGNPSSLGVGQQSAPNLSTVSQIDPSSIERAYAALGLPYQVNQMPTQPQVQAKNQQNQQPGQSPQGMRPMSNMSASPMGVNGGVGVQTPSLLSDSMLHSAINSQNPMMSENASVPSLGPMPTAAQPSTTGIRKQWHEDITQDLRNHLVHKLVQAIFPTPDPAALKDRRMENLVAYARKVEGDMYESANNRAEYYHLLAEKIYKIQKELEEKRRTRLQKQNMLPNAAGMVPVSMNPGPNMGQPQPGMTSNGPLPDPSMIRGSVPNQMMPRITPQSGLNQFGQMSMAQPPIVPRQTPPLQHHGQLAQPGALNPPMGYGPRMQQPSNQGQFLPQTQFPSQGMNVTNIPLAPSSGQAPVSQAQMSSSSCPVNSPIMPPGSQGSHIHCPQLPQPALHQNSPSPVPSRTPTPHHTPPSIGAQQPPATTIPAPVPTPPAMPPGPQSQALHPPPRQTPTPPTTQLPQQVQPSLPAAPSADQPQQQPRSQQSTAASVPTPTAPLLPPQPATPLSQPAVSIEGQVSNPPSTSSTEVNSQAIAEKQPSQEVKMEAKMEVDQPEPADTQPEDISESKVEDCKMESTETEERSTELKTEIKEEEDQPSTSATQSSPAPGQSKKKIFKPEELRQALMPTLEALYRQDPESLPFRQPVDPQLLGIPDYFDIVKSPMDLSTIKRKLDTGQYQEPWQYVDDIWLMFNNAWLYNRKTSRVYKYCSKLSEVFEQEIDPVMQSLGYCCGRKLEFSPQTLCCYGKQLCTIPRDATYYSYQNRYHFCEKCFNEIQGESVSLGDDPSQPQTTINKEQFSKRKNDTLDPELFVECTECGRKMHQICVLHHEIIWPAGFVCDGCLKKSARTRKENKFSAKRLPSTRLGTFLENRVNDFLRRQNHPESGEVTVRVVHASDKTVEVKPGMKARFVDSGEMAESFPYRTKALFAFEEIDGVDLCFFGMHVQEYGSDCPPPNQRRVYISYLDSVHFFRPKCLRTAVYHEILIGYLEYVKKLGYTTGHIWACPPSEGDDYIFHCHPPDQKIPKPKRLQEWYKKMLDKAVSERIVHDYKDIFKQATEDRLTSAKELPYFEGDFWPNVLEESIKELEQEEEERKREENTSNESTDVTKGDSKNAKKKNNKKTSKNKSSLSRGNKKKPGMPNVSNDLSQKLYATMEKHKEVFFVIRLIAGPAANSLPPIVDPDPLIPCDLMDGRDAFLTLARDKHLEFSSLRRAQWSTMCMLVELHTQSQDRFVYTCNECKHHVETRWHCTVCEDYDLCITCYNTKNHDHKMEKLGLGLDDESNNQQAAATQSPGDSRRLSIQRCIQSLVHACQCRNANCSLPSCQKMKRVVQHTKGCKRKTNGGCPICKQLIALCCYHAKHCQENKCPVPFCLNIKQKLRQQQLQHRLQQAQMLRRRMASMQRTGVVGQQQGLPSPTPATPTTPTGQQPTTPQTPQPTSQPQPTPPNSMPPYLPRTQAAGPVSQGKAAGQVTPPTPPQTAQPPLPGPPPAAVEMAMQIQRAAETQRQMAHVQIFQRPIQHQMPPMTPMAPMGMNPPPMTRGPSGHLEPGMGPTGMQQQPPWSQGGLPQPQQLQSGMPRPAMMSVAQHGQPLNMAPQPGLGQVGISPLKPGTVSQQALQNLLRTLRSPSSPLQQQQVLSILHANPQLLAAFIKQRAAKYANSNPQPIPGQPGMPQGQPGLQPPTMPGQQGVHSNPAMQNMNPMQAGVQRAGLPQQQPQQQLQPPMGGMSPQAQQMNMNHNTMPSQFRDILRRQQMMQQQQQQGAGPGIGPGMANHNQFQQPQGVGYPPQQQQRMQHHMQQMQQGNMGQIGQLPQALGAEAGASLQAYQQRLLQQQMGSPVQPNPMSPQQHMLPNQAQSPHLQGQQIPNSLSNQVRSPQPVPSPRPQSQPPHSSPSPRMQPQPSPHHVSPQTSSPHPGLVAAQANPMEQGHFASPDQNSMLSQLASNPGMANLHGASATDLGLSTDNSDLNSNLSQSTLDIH

Compound: C[C@H](O)C(=O)SCCNC(=O)CCNC(=O)[C@H](O)C(C)(C)COP(=O)(O)OP(=O)(O)OC[C@H]1O[C@@H](n2cnc3c(N)ncnc32)[C@H](O)[C@@H]1OP(=O)(O)O [L-lactyl-CoA]
- in vitro lactylation of recombinant human TFEB, anti-Kla western blot [1]: lactylation was observed in TFEB incubated with p300-HA instead of transferase-inactivated p300-WY-HA

Compound: C[C@H](O)C(=O)O [lactate]
- isothermal titration calorimetry; intrinsic tryptophan fluorescence quenching [2]: sodium lactate resulted in the fixed tryptophan fluorescence quenching of purified NDRG3
